Several values for one entry are separate records, joined by “and”; a condition that tells them apart may be missing. Equal values may be shown once.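 Where inhibition never reached the appropriate level, the endpoint shown equals the highest concentration tested. Otherwise, values were interpolated linearly from a five-concentration, 48-hour dose response in 96-well plates. TGI: total growth inhibition.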
What was measured:
Assay in all cases: NCI anticancer screen, dose series, 48 h
KM12 colon = system: KM12 colon
CAKI-1 renal = system: CAKI-1 renal
NCI-H226 lung = system: NCI-H226 lung
OVCAR-3 ovarian = system: OVCAR-3 ovarian
MDA-MB-435 = system: MDA-MB-435
K-562 leukemia = system: K-562 leukemia
SF-295 CNS = system: SF-295 CNS
HCC-2998 colon = system: HCC-2998 colon
U251 CNS = system: U251 CNS
HOP-92 NSCLC = system: HOP-92 NSCLC

With `COc1ccc(C2C(=O)c3c(OC)cc(OC)cc3OC2c2cccnc2)cc1` (stereo not drawn) the TGI (KM12 colon) was over 100 µM, the TGI (CAKI-1 renal) was over 100 µM and the TGI (NCI-H226 lung) was over 100 µM. It also gave a TGI (OVCAR-3 ovarian) of over 100 µM, a TGI (MDA-MB-435) of over 100 µM and a TGI (K-562 leukemia) of over 100 µM. The TGI (SF-295 CNS) was over 100 µM and the TGI (HCC-2998 colon) was over 100 µM.

`CC(C)=CC[C@]12CCN(C)[C@H]1N(S(=O)(=O)c1ccccc1)c1ccccc12` was tested, and the TGI (KM12 colon) was over 100 µM, the TGI (CAKI-1 renal) was over 100 µM and the TGI (NCI-H226 lung) was over 100 µM. It also gave a TGI (OVCAR-3 ovarian) of over 74.4 µM, a TGI (U251 CNS) of over 58.2 µM and a TGI (MDA-MB-435) of over 71.6 µM. It also gave a TGI (K-562 leukemia) of over 100 µM, a TGI (SF-295 CNS) of over 100 µM and a TGI (HCC-2998 colon) of over 61.4 µM. For the same compound, the TGI (HOP-92 NSCLC) was over 79.9 µM.

`COC(=O)c1cc(OC)c(OC)c(OC)c1-c1cc2c(cc1C=O)OCO2` was tested, and the TGI (KM12 colon) was over 10 µM, the TGI (CAKI-1 renal) was over 10 µM and the TGI (NCI-H226 lung) was over 10 µM. The TGI (OVCAR-3 ovarian) was over 10 µM, the TGI (U251 CNS) was over 10 µM and the TGI (MDA-MB-435) was over 10 µM. The TGI (K-562 leukemia) was over 10 µM, the TGI (SF-295 CNS) was over 10 µM and the TGI (HCC-2998 colon) was over 10 µM. The TGI (HOP-92 NSCLC) was over 10 µM.

Work on `O=C1CSC(c2cccc(Cl)c2)N1c1ccc(-c2ccc(-n3c(-c4ccccc4)nc4ccccc4c3=O)cc2)cc1` (stereo not drawn) yielded a TGI (KM12 colon) of over 100 µM, a TGI (CAKI-1 renal) of over 100 µM and a TGI (NCI-H226 lung) of over 100 µM. The TGI (OVCAR-3 ovarian) was over 100 µM, the TGI (U251 CNS) was over 100 µM and the TGI (MDA-MB-435) was over 100 µM. It also gave a TGI (K-562 leukemia) of over 100 µM, a TGI (SF-295 CNS) of over 100 µM and a TGI (HCC-2998 colon) of over 100 µM. The TGI (HOP-92 NSCLC) was 56.5 µM.

Work on `C(=Nc1ccc(-c2nc3ccccc3s2)cc1)c1ccc[nH]1` yielded a TGI (KM12 colon) of 71.3 µM, a TGI (CAKI-1 renal) of 78.3 µM and a TGI (NCI-H226 lung) of 35.6 µM. The TGI (OVCAR-3 ovarian) was 39.5 µM, the TGI (U251 CNS) was 27.7 µM and the TGI (MDA-MB-435) was 41 µM. The TGI (K-562 leukemia) was 66.6 µM, the TGI (SF-295 CNS) was 27.9 µM and the TGI (HCC-2998 colon) was 31.9 µM. For the same compound, the TGI (HOP-92 NSCLC) was 40.1 µM.

For `O=C(O)/C=C/c1ccc2c(c1)CC1(Cc3ccccc3C1)C2`, the TGI (KM12 colon) was over 100 µM, the TGI (NCI-H226 lung) was 99.4 µM and the TGI (OVCAR-3 ovarian) was over 100 µM. It also gave a TGI (U251 CNS) of over 100 µM, a TGI (MDA-MB-435) of over 100 µM and a TGI (K-562 leukemia) of over 100 µM. For the same compound, the TGI (SF-295 CNS) was over 100 µM, the TGI (HCC-2998 colon) was over 100 µM and the TGI (HOP-92 NSCLC) was over 100 µM.

With `CC1(C)OC2OC(C(COS(=O)(=O)C(F)(F)F)N=[N+]=[N-])C(OC(=O)c3ccccc3)C2O1` (stereo not drawn) the TGI (KM12 colon) was over 100 µM, the TGI (CAKI-1 renal) was over 100 µM and the TGI (NCI-H226 lung) was over 100 µM. It also gave a TGI (OVCAR-3 ovarian) of over 100 µM, a TGI (U251 CNS) of over 100 µM and a TGI (MDA-MB-435) of over 100 µM. For the same compound, the TGI (K-562 leukemia) was over 100 µM, the TGI (SF-295 CNS) was over 100 µM and the TGI (HCC-2998 colon) was over 100 µM. It also gave a TGI (HOP-92 NSCLC) of over 100 µM.

Work on `CN(CCc1ccccn1)C(=S)N/N=C(\c1ccccc1)c1ccccn1` yielded a TGI (KM12 colon) of 2.37 µM, a TGI (CAKI-1 renal) of 5.3 µM and a TGI (OVCAR-3 ovarian) of 10.4 µM. The TGI (U251 CNS) was over 36.6 µM, the TGI (MDA-MB-435) was 8.09 µM and the TGI (K-562 leukemia) was over 100 µM. The TGI (SF-295 CNS) was 2.7 µM, the TGI (HCC-2998 colon) was 5.39 µM and the TGI (HOP-92 NSCLC) was 3.59 µM.

`[N-]=[N+]=CC(=O)OCCCCl` gave a TGI (KM12 colon) of over 100 µM, a TGI (CAKI-1 renal) of over 100 µM and a TGI (NCI-H226 lung) of over 100 µM. The TGI (OVCAR-3 ovarian) was over 100 µM, the TGI (U251 CNS) was over 100 µM and the TGI (MDA-MB-435) was over 100 µM. For the same compound, the TGI (SF-295 CNS) was over 100 µM, the TGI (HCC-2998 colon) was over 100 µM and the TGI (HOP-92 NSCLC) was over 100 µM.

In the case of `CCn1c(CCl)nc2c1C(=O)c1ccccc1C2=O`, the TGI (KM12 colon) is reported as 3.23 µM, the TGI (NCI-H226 lung) is reported as 0.473 µM and the TGI (OVCAR-3 ovarian) is reported as 3.05 µM. For the same compound, the TGI (U251 CNS) was 3.12 µM, the TGI (MDA-MB-435) was 3.12 µM and the TGI (K-562 leukemia) was over 100 µM. The TGI (SF-295 CNS) was 3.54 µM, the TGI (HCC-2998 colon) was 2.9 µM and the TGI (HOP-92 NSCLC) was 3.75 µM.

In the case of `CC(=O)NC1=NC(=O)/C(=C/c2ccc(/C=C3/C(=O)N=C(NC(C)=O)N3C)cc2)N1C`, the TGI (KM12 colon) is reported as over 100 µM, the TGI (CAKI-1 renal) is reported as over 100 µM and the TGI (NCI-H226 lung) is reported as over 100 µM. The TGI (OVCAR-3 ovarian) was over 100 µM, the TGI (U251 CNS) was over 100 µM and the TGI (MDA-MB-435) was over 100 µM. It also gave a TGI (SF-295 CNS) of over 100 µM, a TGI (HCC-2998 colon) of over 100 µM and a TGI (HOP-92 NSCLC) of over 100 µM.

Work on `C[C@]12CC(c3ccccc3O1)C(C(=O)Nc1nc(C34CC5CC(CC(C5)C3)C4)cs1)C(=O)N2` (stereo partly drawn) yielded a TGI (KM12 colon) of over 100 µM, a TGI (CAKI-1 renal) of over 100 µM and a TGI (NCI-H226 lung) of over 100 µM. The TGI (OVCAR-3 ovarian) was over 100 µM, the TGI (U251 CNS) was over 100 µM and the TGI (MDA-MB-435) was over 100 µM. For the same compound, the TGI (K-562 leukemia) was over 100 µM, the TGI (HCC-2998 colon) was over 100 µM and the TGI (HOP-92 NSCLC) was over 100 µM.

With `Cc1cc(S(=O)(=O)Nc2n[nH]c(N)n2)c(Cl)cc1Cl` the TGI (KM12 colon) was over 10 µM, the TGI (CAKI-1 renal) was over 10 µM and the TGI (NCI-H226 lung) was over 10 µM. For the same compound, the TGI (OVCAR-3 ovarian) was over 10 µM, the TGI (U251 CNS) was over 10 µM and the TGI (MDA-MB-435) was over 10 µM. For the same compound, the TGI (K-562 leukemia) was over 10 µM, the TGI (SF-295 CNS) was over 10 µM and the TGI (HCC-2998 colon) was over 10 µM.

`Cc1c2c(n(CC(c3ccccc3)c3ccccc3)c1C)NN=C(C#N)S2(=O)=O` showed a TGI (KM12 colon) of over 100 µM, a TGI (CAKI-1 renal) of over 100 µM and a TGI (NCI-H226 lung) of over 100 µM. The TGI (OVCAR-3 ovarian) was over 100 µM, the TGI (U251 CNS) was over 100 µM and the TGI (MDA-MB-435) was over 100 µM. It also gave a TGI (SF-295 CNS) of over 100 µM, a TGI (HCC-2998 colon) of over 100 µM and a TGI (HOP-92 NSCLC) of over 100 µM.

In the case of `CCC(C)C1=C(O)[N+]2([O-])Oc3ccc(-c4c(O)c(O)c(-c5ccc(OC(C)=O)cc5)c(OC(C)=O)c4OC(C)=O)cc3OC2(C(C)CC)C(=O)N1O` (stereo not drawn), the TGI (KM12 colon) is reported as over 50 µM, the TGI (CAKI-1 renal) is reported as over 50 µM and the TGI (OVCAR-3 ovarian) is reported as over 50 µM. For the same compound, the TGI (U251 CNS) was over 50 µM, the TGI (MDA-MB-435) was over 50 µM and the TGI (K-562 leukemia) was 49.1 µM and > 50 µM. For the same compound, the TGI (SF-295 CNS) was over 50 µM, the TGI (HCC-2998 colon) was 41.5 µM and the TGI (HOP-92 NSCLC) was over 50 µM.

For `NC(Cc1ccc2nc3c4ccccc4c(=O)cc-3oc2c1)C(=O)O` (stereo not drawn), the TGI (KM12 colon) was over 100 µM, the TGI (CAKI-1 renal) was over 100 µM and the TGI (OVCAR-3 ovarian) was over 100 µM. It also gave a TGI (U251 CNS) of over 100 µM, a TGI (MDA-MB-435) of 32.3 µM and a TGI (K-562 leukemia) of over 100 µM. For the same compound, the TGI (SF-295 CNS) was over 100 µM, the TGI (HCC-2998 colon) was over 100 µM and the TGI (HOP-92 NSCLC) was over 100 µM.

Source: PubChem BioAssay (NCI)
